Structures are written as SMILES. Several values for one entry are separate records, joined by “and”; a condition that tells them apart may be missing. Equal entries are not always repeated. Numbers after ± are expanded uncertainties.

For data set [1] the following is noted: Crystal; visual observation.
The nature of data set [2]: wn = mass fraction of the nth substance listed. The note with it: 298.15 K, 102.5 kPa, Liquid; for viscosity: Concentric cylinders viscometry; for mass density: Vibrating tube method.

In the case of `O=[PH2][O-].O=[PH2][O-].[Zn+2]` [zinc(II) phosphinate], in data set [1], the Triple point temperature was found to be 446.15 ± 5 K.

With `[Cl-].[Na+]` [sodium chloride] + O, in data set [2] (w1 = 0.2642), the viscosity (usually the internal friction of a fluid under shear) was 1.5 ± 0.03 mPa·s and 1.7 ± 0.04 mPa·s; the mass density (commonly the mass of a sample divided by its volume) was 1194 ± 2 kg/m3 and 1214 ± 2 kg/m3.

Take `O=[PH2][O-].O=[PH2][O-].[Zn+2]` [zinc(II) phosphinate] + O: the viscosity in data set [2] (w2 = 0.5196) came to 2.04 ± 0.04 mPa·s. Also, the mass density in data set [2] (w1 = 0.1861) was 1157 ± 2 kg/m3.

On to `O=[PH2][O-].[Na+]` [sodium phosphinate] + O, for which, in data set [2] (w1 = 0.5196), the viscosity was found to be 17.6 ± 0.38 mPa·s and the mass density turned out to be 1394 ± 3 kg/m3.

Values taken from the NIST ThermoML archive (doi:10.1021/acs.jced.5b00988).
